In ChEMBL document CHEMBL3525909, “Metabolism of LY654322, a growth hormone secretagogue, to an unusual diimidazopyridine metabolite” (Drug Metab Dispos, 2011):
Each block holds one compound with its values, some of them ahead of it.

Tests used:
Liver [1] = assay: Drug metabolism in dog liver slices assessed as (2R,2'R)-2,2'-(diimidazo[4,5-b:4',5'-e]pyridine-1,7-diyl)bis(2-(4-fluorophenyl)-1-(pyrrolidin-1-yl)propan-1-one) formation at 50 uM after 24 hrs; format: ADME, tissue-based, Canis lupus familiaris
Plasma [2] = assay: Drug metabolism in beagle dog plasma assessed as (R)-2-(4-amino-1H-imidazol-1-yl)-2-(4-fluorophenyl)-1-(pyrrolidin-1-yl)propan-1-one formation at 1 mg/kg, iv by LC-MS analysis; format: ADME, organism-based, Canis lupus familiaris; parameters: dose 1 mg/kg, route intravenous; settings: in vivo
Plasma [3] = assay: Drug metabolism in Fischer 344 rat plasma assessed as (R)-2-(4-amino-1H-imidazol-1-yl)-2-(4-fluorophenyl)-1-(pyrrolidin-1-yl)propan-1-one formation at 3 mg/kg, iv by LC-MS analysis; format: ADME, organism-based; parameters: dose 3 mg/kg, route intravenous; settings: in vivo
[4] = Plasma clearance in Fischer 344 rat at 3 mg/kg, iv; format: ADME, organism-based; parameters: dose 3 mg/kg, route intravenous
[5] = Terminal half life in beagle dog at 1 mg/kg, iv; format: ADME, organism-based, Canis lupus familiaris; parameters: dose 1 mg/kg, route intravenous; settings: in vivo, read-out: beta t1/2 (converted)
Plasma [6] = assay: Drug metabolism in Fischer 344 rat plasma assessed as (R)-2-(2-amino-2-methylpropanamido)-5-phenylpentanoic acid formation at 3 mg/kg, iv by LC-MS analysis; format: ADME, organism-based; parameters: dose 3 mg/kg, route intravenous; settings: in vivo
[7] = Drug excretion in beagle dog urine assessed as (R)-2-(4-amino-1H-imidazol-1-yl)-2-(4-fluorophenyl)-1-(pyrrolidin-1-yl)propan-1-one formation at 20 mg/kg, po by LC-MS analysis; format: ADME, organism-based, Canis lupus familiaris; parameters: dose 20 mg/kg, route oral; settings: in vivo
[8] = Drug excretion in beagle dog urine assessed as (2R,2'R)-2,2'-(diimidazo[4,5-b:4',5'-e]pyridine-1,7-diyl)bis(2-(4-fluorophenyl)-1-(pyrrolidin-1-yl)propan-1-one) formation at 20 mg/kg, po by LC-MS analysis; format: ADME, organism-based, Canis lupus familiaris; parameters: dose 20 mg/kg, route oral; settings: in vivo
[9] = Drug excretion in Fischer 344 rat urine assessed as (R)-2-(4-amino-1H-imidazol-1-yl)-2-(4-fluorophenyl)-1-(pyrrolidin-1-yl)propan-1-one formation at 3 mg/kg, iv and 30 mg/kg, po by LC-MS analysis; format: ADME, organism-based; settings: in vivo
Liver [10] = assay: Drug metabolism in rat liver slices assessed as (2R,2'R)-2,2'-(diimidazo[4,5-b:4',5'-e]pyridine-1,7-diyl)bis(2-(4-fluorophenyl)-1-(pyrrolidin-1-yl)propan-1-one) formation at 50 uM after 24 hrs; format: ADME, tissue-based
[11] = Drug metabolism in human hepatocytes assessed as (2R,2'R)-2,2'-(diimidazo[4,5-b:4',5'-e]pyridine-1,7-diyl)bis(2-(4-fluorophenyl)-1-(pyrrolidin-1-yl)propan-1-one) formation at 50 uM after 4 hrs; format: ADME, cell-based, Hepatocyte
[12] = Terminal half life in Fischer 344 rat at 3 mg/kg, iv; format: ADME, organism-based; parameters: dose 3 mg/kg, route intravenous; settings: in vivo, read-out: beta t1/2 (converted)
[13] = Drug excretion in Fischer 344 rat urine assessed as (2R,2'R)-2,2'-(diimidazo[4,5-b:4',5'-e]pyridine-1,7-diyl)bis(2-(4-fluorophenyl)-1-(pyrrolidin-1-yl)propan-1-one) formation at 3 mg/kg, iv and 30 mg/kg, po by LC-MS analysis; format: ADME, organism-based; settings: in vivo
[14] = Oral bioavailability in Fischer 344 rat at 30 mg/kg; format: ADME, organism-based; settings: in vivo
[15] = Oral bioavailability in beagle dog at 3 mg/kg; format: ADME, organism-based, Canis lupus familiaris; settings: in vivo
[16] = Drug excretion in Fischer 344 rat urine assessed as (2R,2'R)-2,2'-(diimidazo[4,5-b:4',5'-e]pyridine-1,7-diyl)bis(2-(4-fluorophenyl)-1-(pyrrolidin-1-yl)propan-1-one) formation at 3 mg/kg, iv and 30 mg/kg, po by LC-UV spectrophotometry; format: ADME, organism-based; settings: in vivo
[17] = Plasma clearance in beagle dog at 1 mg/kg, iv; format: ADME, organism-based, Canis lupus familiaris; parameters: dose 1 mg/kg, route intravenous
Plasma [18] = assay: Drug level in beagle dog plasma treated with 2-Methylalanyl-N-{1-[(1R)-1-(4-fluorophenyl)-1-methyl-2-oxo-2-pyrrolidin-1-ylethyl]-1H-imidazol-4-yl}-5-phenyl-D-norvalinamide at 1 mg/kg, iv by LC-MS/MS analysis; format: ADME, organism-based, Canis lupus familiaris; parameters: dose 1 mg/kg, route intravenous; settings: in vivo
[19] = Drug level in beagle dog urine treated with 2-Methylalanyl-N-{1-[(1R)-1-(4-fluorophenyl)-1-methyl-2-oxo-2-pyrrolidin-1-ylethyl]-1H-imidazol-4-yl}-5-phenyl-D-norvalinamide at 20 mg/kg, po by LC-MS analysis; format: ADME, organism-based, Canis lupus familiaris; parameters: dose 20 mg/kg, route oral; settings: in vivo
Plasma [20] = assay: Drug level in Fischer 344 rat plasma treated with 2-Methylalanyl-N-{1-[(1R)-1-(4-fluorophenyl)-1-methyl-2-oxo-2-pyrrolidin-1-ylethyl]-1H-imidazol-4-yl}-5-phenyl-D-norvalinamide at 3 mg/kg, iv by LC-MS/MS analysis; format: ADME, organism-based; parameters: dose 3 mg/kg, route intravenous; settings: in vivo
[21] = Drug level in Fischer 344 rat urine treated with 2-Methylalanyl-N-{1-[(1R)-1-(4-fluorophenyl)-1-methyl-2-oxo-2-pyrrolidin-1-ylethyl]-1H-imidazol-4-yl}-5-phenyl-D-norvalinamide at 3 mg/kg, iv and 30 mg/kg, po by LC-MS analysis; format: ADME, organism-based; settings: in vivo
[22] = Drug level in Fischer 344 rat urine treated with 2-Methylalanyl-N-{1-[(1R)-1-(4-fluorophenyl)-1-methyl-2-oxo-2-pyrrolidin-1-ylethyl]-1H-imidazol-4-yl}-5-phenyl-D-norvalinamide at 3 mg/kg, iv and 30 mg/kg, po by LC-UV spectrophotometry; format: ADME, organism-based; settings: in vivo

- Drug metabolism (Liver [1]): metabolite_not_detected
- Drug metabolism (Plasma [2]): metabolite_detected
- Drug metabolism (Plasma [3]): metabolite_detected
- clearance [4]: 75 mL/min/kg
- half-life [5]: 5 h
- Drug metabolism (Plasma [6]): metabolite_detected
- Drug excretion [7]: metabolite_detected
- Drug excretion [8]: metabolite_detected
- Drug excretion [9]: metabolite_detected
- Drug metabolism (Liver [10]): metabolite_not_detected
- Drug metabolism [11]: metabolite_not_detected
- half-life [12]: 2 h
- Drug excretion [13]: metabolite_detected
- bioavailability [14]: 74%
- bioavailability [15]: 33%
- Drug excretion [16]: metabolite_detected
- clearance [17]: 33 mL/min/kg
Compound: CC(C)(N)C(=O)N[C@H](CCCc1ccccc1)C(=O)Nc1cn([C@@](C)(C(=O)N2CCCC2)c2ccc(F)cc2)cn1

- Drug metabolism (Plasma [18]): metabolite_detected
- Drug excretion [19]: metabolite_detected
- Drug metabolism (Plasma [20]): metabolite_detected
- Drug excretion [21]: metabolite_detected
Compound: C[C@](C(=O)N1CCCC1)(c1ccc(F)cc1)n1cnc(N)c1

- Drug metabolism (Plasma [20]): metabolite_detected
Compound: CC(C)(N)C(=O)N[C@H](CCCc1ccccc1)C(=O)O

- Drug excretion [22]: metabolite_detected
- Drug excretion [19]: metabolite_detected
- Drug excretion [21]: metabolite_detected
Compound: C[C@](C(=O)N1CCCC1)(c1ccc(F)cc1)n1cnc2nc3ncn([C@@](C)(C(=O)N4CCCC4)c4ccc(F)cc4)c3cc21
